# ChEMBL document CHEMBL3525953, “In vitro cytochrome P450-mediated metabolism of exemestane” (Drug Metab Dispos, 2011)
# Tests used:
# Type in all cases: ADME
# Cytochrome P450 2A6 = biological target: T1, Cytochrome P450 2A6 (Homo sapiens, UniProt P11509); assay: Drug metabolism assessed as human recombinant CYP2A6-mediated 17-hydroexemestane formation rate per pmol of enzyme at 10 uM after 10 mins
# T1 sequence (P11509 whole entry): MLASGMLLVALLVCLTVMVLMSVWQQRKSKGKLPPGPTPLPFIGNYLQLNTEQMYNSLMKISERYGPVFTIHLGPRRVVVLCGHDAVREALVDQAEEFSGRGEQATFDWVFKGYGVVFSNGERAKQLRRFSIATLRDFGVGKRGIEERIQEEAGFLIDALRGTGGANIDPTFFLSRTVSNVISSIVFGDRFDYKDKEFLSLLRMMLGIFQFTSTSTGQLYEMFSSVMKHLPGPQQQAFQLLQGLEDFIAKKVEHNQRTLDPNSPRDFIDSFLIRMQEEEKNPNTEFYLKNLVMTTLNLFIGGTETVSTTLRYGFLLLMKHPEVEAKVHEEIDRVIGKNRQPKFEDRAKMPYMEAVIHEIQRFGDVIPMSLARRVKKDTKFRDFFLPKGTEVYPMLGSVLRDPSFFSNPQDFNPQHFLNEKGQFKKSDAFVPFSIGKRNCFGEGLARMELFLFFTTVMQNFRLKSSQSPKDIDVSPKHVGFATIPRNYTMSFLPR
# Liver microsome = assay: Drug metabolism in human liver microsomes assessed as 17-hydroexemestane formation after 10 mins by Michaelis-Menten saturation curve analysis
# Aromatase = biological target: T2, Aromatase (Homo sapiens, UniProt P11511); assay: Drug metabolism assessed as human recombinant CYP19-mediated 17-hydroexemestane formation at 10 uM after 10 mins by Michaelis-Menten saturation curve analysis; conditions: recombinant enzyme
# T2 sequence (P11511 whole entry): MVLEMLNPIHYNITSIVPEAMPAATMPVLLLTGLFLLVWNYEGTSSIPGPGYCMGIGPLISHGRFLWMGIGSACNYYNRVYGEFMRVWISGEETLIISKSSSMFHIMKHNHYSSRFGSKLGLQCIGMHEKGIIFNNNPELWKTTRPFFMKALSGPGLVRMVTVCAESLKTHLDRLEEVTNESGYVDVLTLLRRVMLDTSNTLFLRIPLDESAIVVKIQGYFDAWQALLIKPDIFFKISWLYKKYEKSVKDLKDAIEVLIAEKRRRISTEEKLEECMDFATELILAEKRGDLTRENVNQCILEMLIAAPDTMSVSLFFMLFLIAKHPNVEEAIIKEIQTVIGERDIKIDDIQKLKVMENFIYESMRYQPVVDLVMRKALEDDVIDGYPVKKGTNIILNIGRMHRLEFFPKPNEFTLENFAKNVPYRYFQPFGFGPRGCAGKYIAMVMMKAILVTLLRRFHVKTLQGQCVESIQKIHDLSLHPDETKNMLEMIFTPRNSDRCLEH
structure (smiles),measurement,setting,value
C=C1C[C@@H]2[C@H](CC[C@]3(C)C(O)CC[C@@H]23)[C@@]2(C)C=CC(=O)C=C12 (some centres undefined),Drug metabolism,Cytochrome P450 2A6,0.51 pmol/min
same,Vmax(app),Liver microsome,222.4 pmol/mg/min
same,Km,Liver microsome; read-out: Km(app),13.7 µM
same,Drug metabolism,Aromatase,metabolite_detected
